Where two headings read alike, the source gives them in different places. Marks after values point to notes of the source that are not given here.
Legend:
[1] = Stability of maytansinoids and maytansinoid-HSA conjugates in CD1 mouse plasma; assay type: in vitro ADME; settings: 37° C., 30 μM
Experimental: (§1) For studying the stability of the maytansinoids as wells as the maytansinoid-HSA conjugates in CD1 and human plasma the compounds were incubated at 37° C. for 24 hours. Remaining free maytansinoid or release of the respective maytansinoid was quantified by LC-MS/MS (or HPLC) at certain time points.
(§2) Pooled CD1 mouse or human plasma (K2EDTA, Innovative research) was centrifuged (1 min at 12,044 g). The supernatant was first filtered through a filter needle (5 μm, sterile, Becton Dickinson) and subsequently through a cellulose acetate membrane (0.45 μm, sterile, Carl Roth). The filtered plasma (1710 μL) was preincubated at 37° C. for 30 min in a heating block. The free maytansinoid or albumin-binding maytansinoid as a 300 μM stock solution in DMSO (190 μL) was added to the preincubated plasma sample to produce a 30 μM solution of the respective maytansinoid or maytansinoid-HSA conjugate. The mixture was allowed to react for 10 min at 37° C. and then at each time point (0, 1, 2, 3, 4, 5, 21, and 24 hours) three samples (70 μL) were taken into a 96-well plate, sealed with a plastic mat, immediately frozen with liquid nitrogen and stored at −20° C. At the end of the experiment, the 96-well plate was thawed at room temperature. The samples (30 μL) were then directly transferred via a multichannel pipette into a 96-well Impact™ protein precipitation plate (Strata®) which was once washed with MeCN (150 μL) and then loaded with the internal standard (120 μL, MeCN containing 5 μg/mL maytansine). The Impact™ precipitation plate was sealed with a silicone mat and shaken for 2 min 420 rpm. The Impact™ precipitation plate was then placed onto a 96-well sample manifold and the filtrate was collected into another 96-well plate by applying mild vacuum. The 96-well plate was sealed with a silicone mat and kept at room temperature until LC-MS/MS quantification. The filtrate was injected into the LC-MS for quantification using the MRM mode. […]

[2] = In vitro cytotoxicity in different cell lines using the CellTiter-Blue Cell Viability Assay; assay type: cell-based, human; settings: Homo sapiens; geometric mean over the n cell lines tested, 96 h treatment, CellTiter-Blue; read-out: Geomean IC50
[3] = Stability of maytansinoids and maytansinoid-HSA conjugates in human plasma; assay type: in vitro ADME; settings: 37° C., 30 μM
Experimental: as §1, §2

albumin = biological target: T1, albumin (Homo sapiens, UniProt P02768); experiment: in vitro; assay type: in vitro ADME; settings: 37° C., 12.0 μM, read-out: % bound (converted)
T1 construct: tissue Zen-Bio; host or cells: pooled human whole blood (K2EDTA, 36 donors) and plasma prepared from it
T1 sequence (P02768 25-609): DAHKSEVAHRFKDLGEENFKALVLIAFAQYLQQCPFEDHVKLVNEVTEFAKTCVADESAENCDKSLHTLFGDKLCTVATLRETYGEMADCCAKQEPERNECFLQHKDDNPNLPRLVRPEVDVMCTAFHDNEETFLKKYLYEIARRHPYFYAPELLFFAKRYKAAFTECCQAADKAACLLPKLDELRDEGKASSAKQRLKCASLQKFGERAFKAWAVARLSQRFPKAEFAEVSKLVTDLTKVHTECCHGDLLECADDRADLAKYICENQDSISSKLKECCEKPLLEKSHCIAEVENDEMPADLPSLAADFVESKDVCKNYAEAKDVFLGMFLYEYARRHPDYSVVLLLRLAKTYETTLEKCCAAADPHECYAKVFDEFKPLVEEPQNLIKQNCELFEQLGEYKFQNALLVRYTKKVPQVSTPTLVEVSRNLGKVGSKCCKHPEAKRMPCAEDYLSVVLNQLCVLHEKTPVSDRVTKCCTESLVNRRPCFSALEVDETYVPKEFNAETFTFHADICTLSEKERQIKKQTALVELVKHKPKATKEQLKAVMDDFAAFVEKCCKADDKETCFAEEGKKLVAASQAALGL
Experimental: To study the binding kinetics of the albumin-binding maytansinoids in pooled human plasma and pooled human whole blood, the compounds were incubated together with pooled human plasma at 37° C. and samples were taken at specified time points. Remaining albumin-binding maytansinoids were quantitated by HPLC.
To study the binding kinetics in human whole blood, the blood (K2EDTA, 36 donors, Zen-Bio; 900 μL) was preincubated at 37° C. for 30 min in a heating block. To study the binding kinetics in pooled human plasma, the pooled whole blood was centrifuged (10 min, 1811 g), the supernatant plasma was collected and then preincubated at 37° C. for 30 min.
The albumin-binding maytansinoid was added to the preincubated whole blood/plasma sample as a 10-fold dilution in PBS of a 1.2 mM stock solution in 2.5% propylene glycol in 10 mM sodium phosphate buffer and 1.48 mM citrate (100 μL) to produce a 12.0 μM solution of the respective albumin-binding maytansinoid. Samples (190 μL) were taken after 15 s, 2 min, 4 min, 8 min and 15 min. The samples were directly added to 760 μL MeCN containing maytansine (5 μg/mL) as an internal standard and vortexed for 1 min. After centrifugation (1 min at 12,044 g) the supernatant (850 μL) was concentrated under high vacuum. The residue was taken up in DMSO/water (1:1 v/v; 95 μL) and then analyzed by RP-HPLC. Percentage of binding was determined by comparison of the area under the curve (AUC) at 220 nm of the albumin-binding maytansinoid relative to a control sample (100% value) in PBS buffer. All experiments were performed in triplicates.
HPLC method: Phenomenex Kinetex Polar C18, 2.6 μm, 100 Å, 150×4.6 mm; eluent A (95:5 5 mM ammonium acetate: MeCN) and eluent B (5:95 5 mM ammonium acetate: MeCN) eluting with a gradient of eluent B (30% 0-0.5 min, 30-95% 0.5-9.0 min, 95% 11.0 min, 95-30% 11.0-14.5 min, 30% 15.0 min, flow rate=1.0 mL/min). Column oven temperature ambient temperature; autosampler temperature 4° C.; 50 μL of injection volume.

[4] = Stability and release kinetics of maytansinoid-HSA conjugates in buffer solution at pH 4.0 and pH 7.4; assay type: physicochemical; settings: maytansinoid-HSA conjugate, PBS pH 7.4, 37° C., measured at 100 μM
Experimental: For preparing HSA conjugates of albumin-binding maytansinoids, HSA (200 μM: 361.8 μL, 1078 μM free Cys34; 100 μM: 180.9 μL, 1078 μM free Cys34) was diluted with PBS buffer (4 mM sodium phosphate, 150 mM NaCl, pH 7.4) (200 μM: 678.2 μL; 100 μM: 859.1 μL) and DMSO (200 μM: 130.0 μL; 100 μM: 195.0 μL) and incubated in a heating block at 37° C. for 30 minutes. The albumin-binding maytansinoid was added as a 2 mM stock solution in DMSO (200 μM: 130.0 μL; 100 μM: 65.0 μL) to the preincubated HSA sample to produce a 200 μM or 100 μM solution of maytansinoid-prodrug and 300 μM or 150 μM of free Cys34. The mixture having a pH of 7.4 was allowed to react for 10 min at 37° C. and was then analyzed hourly for 24 hours by RP-HPLC (Phenomenex Aeris WP XB-C18, 3.6 μm, 250×4.6 mm).
For studying the release kinetics at pH 4.0 the mixture was acidified with a mixture of 50 mM sodium acetate buffer pH 3.0 (200 μM: 119.3 μL; 100 μM: 125.2 μL) and 1 M HCl (200 μM: 12.7 μL; 100 μM: 6.8 μL) to reach pH 4.0. The mixture was subsequently analyzed hourly for 24 hours by RP-HPLC (Phenomenex Aeris WP XB-C18, 3.6 μm, 250×4.6 mm).
The following RP-HPLC conditions were used: Phenomenex Aeris WP XB-C18 3.6 μm, 250×4.6 mm; eluent A (100% 20 mM Tris buffer pH 8.0) and eluent B (90:10, MeCN: water) eluting with a gradient of eluent B (25% 0-0.5 min, 25-35% 0.5-2.5 min, 35-85% 2.5-16 min, 85-95% 16-17 min, 95% 17-20 min, 95-25% 20-25 min, 25% 25-30 min, flow rate 1.0 mL/min). Column oven temperature 37° C.; autosampler temperature 37° C.; 20 μL of injection volume.
To quantify the percentage of free drug released, standard curves of the free maytansinoids were prepared at different concentrations (200 μM, 100 μM, 50 μM, 25 μM and 12.5 μM). The area under the curve (AUC) was determined at 250 nm.

[5] = test system: human tumor xenograft models; experiment: Antitumor activity in human tumor xenograft mice models; assay type: in vivo; settings: five human tumor xenograft models in nude mice, i.v. on day 1, 8, 15, and 22
Description: This included starting tumor volumes in the range of approximately 80-110 mm^3 but also initial starting tumor volumes of up to approximately 400 mm^3. Furthermore, in most cases therapy with albumin-binding maytansinoids 30 and 31 induced long-term remissions and a decrease in Relative Tumor Volume (RTV). […] Experimental procedure and the results in the tumor-bearing mice models are described in detail in Examples 11-19 and FIGS. 3-16.
Female immunodeficient NMRI nude mice, from Charles River, received unilateral tumor implants subcutaneously in the left flank while under isoflurane anesthesia with human cancer tumors until tumors were palpable and had reached a volume of 80-200 mm^3 (unless otherwise stated).
Animals were kept in cages, the temperature inside the cages maintained at 25±1° C. with a relative humidity of 45-65% and an air change rate in the cage of 60-fold per hour. They were kept under a 14 h light: 10 h dark, artificial light cycle. The animals were fed with autoclaved Teklad Global 19% Protein Extruded Diet (T.2019S.12) from Envigo RMS SARL and had access to sterile filtered and acidified (pH 2.5) tap water, which was changed twice weekly. Feed and water were provided ad libitum. […] Animals were routinely monitored twice daily on working days and daily on Saturdays and Sundays. […] Relative body weights (RBW) of individual animals were calculated by dividing the individual absolute body weight on day X (BWx) by the individual body weight on the day of randomization multiplied by 100%. The tumor volume was determined by a two-dimensional measurement with calipers on the day of randomization (day 0) and then twice weekly. Tumor volumes were calculated according to the following equation: Tumor Vol [mm^3]=1 [mm]×w^2 [mm^2]×0.5, where “1” is the length and “w” is width of the tumor. The relative volume of an individual tumor on day X (RTVx) was calculated by dividing the absolute individual tumor volume [mm^3] of the respective tumor on day X (Tx) by the absolute individual tumor volume of the same tumor on the day of randomization multiplied by 100%. […]

| Compound | % of free maytansinoid remaining after 24 h [1] | IC50 [2] | % of free maytansinoid remaining after 24 h [3] | fraction unbound (albumin; blood, pooled human whole blood, 15 s) | fraction unbound (albumin; blood, pooled human whole blood, 8 min) | fraction unbound (albumin; plasma, pooled human plasma, 15 s) | fraction unbound (albumin; plasma, pooled human plasma, 8 min) | free maytansinoid after 24 h at pH 7.4 [4] | antitumor activity [5] |
| --- | --- | --- | --- | --- | --- | --- | --- | --- | --- |
| COc1cc2cc(c1Cl)N(C)C(=O)C[C@H](OC(=O)Cc1ccc(C(C)=O)cc1F)[C@]1(C)O[C@H]1[C@H](C)[C@@H]1C[C@@](O)(NC(=O)O1)[C@H](OC)/C=C/C=C(\C)C2 [Compound 2] | 71.8% | 0.3 nM | 74.8% | – | – | – | – | – | – |
| COc1cc2cc(c1Cl)N(C)C(=O)C[C@H](OC(=O)COc1cccc(C(C)=O)c1)[C@]1(C)O[C@H]1[C@H](C)[C@@H]1C[C@@](O)(NC(=O)O1)[C@H](OC)/C=C/C=C(\C)C2 [Compound 3] | 40.8% | 0.1 nM | 69.6% | – | – | – | – | – | – |
| COc1cc2cc(c1Cl)N(C)C(=O)C[C@H](OC(=O)Cc1ccc(C(C)=O)cc1)[C@]1(C)O[C@H]1[C@H](C)[C@@H]1C[C@@](O)(NC(=O)O1)[C@H](OC)/C=C/C=C(\C)C2 [Compound 4] | 65.2% | 0.16 nM | 75.6% | – | – | – | – | – | – |
| COc1cc2cc(c1Cl)N(C)C(=O)C[C@H](OC(=O)Cc1ccc(/C(C)=N/NC(=O)c3ccc(NC(=O)CCCCCN4C(=O)C=CC4=O)cc3S(=O)(=O)O)cc1F)[C@]1(C)O[C@H]1[C@H](C)[C@@H]1C[C@@](O)(NC(=O)O1)[C@H](OC)/C=C/C=C(\C)C2 [Compound 30] | – | – | – | 0.017 | 0.015 | 0.036 | 0.015 | 9.6%** | partial and complete tumor regressions |
